# Like-named read-outs stand apart in the source and are kept apart here.
# Columns and labels:
# Set-up in all cases: species or system SD rats
# serotonin S2 receptor = target: T1, serotonin S2 receptor (Rattus norvegicus, UniProt P14842); assay: serotonin S2 receptor binding test ([3H] Ketanserin Binding Test); conditions: 1 nM [3H] Ketanserin, rat cortex, 37° C., 15 minutes
# T1 construct: The receptor fraction prepared from the cortex was molten and suspended; from tissue; host or cells: cerebral cortex of SD rats (membrane fraction)
# In short: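 Rat (SD, 6–8 weeks) cortical membranes in 50 mM Tris-HCl pH 7.4 were incubated with 1 nM [3H]ketanserin for 15 min at 37 °C, then filtered and counted. Nonspecific binding was defined with methysergide. IC50 was obtained by probit analysis and converted to Ki using the Scatchard-derived Kd.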
# dopamine D2 receptor = target: T2, dopamine D2 receptor (Rattus norvegicus, UniProt P61169); assay: dopamine D2 receptor binding test ([3H] Spiperone Binding Test); conditions: 1 nM [3H] Spiperone, rat corpus striatum, room temperature, 60 minutes
# T2 construct: the receptor fraction prepared from the corpus striatum was molten and suspended; from tissue; host or cells: corpus striatum of SD rats (membrane fraction)
# In short: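 Rat (SD, 6–8 weeks) corpus striatum membranes in 50 mM Krebs-Tris pH 7.4 were incubated with 1 nM [3H]spiperone at room temperature for 60 minutes, with nonspecific binding defined by excess spiperone. IC50 came from probit analysis; Ki was derived using radioligand concentration and Scatchard Kd.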
# adrenergic α1 receptor = adrenergic α1 receptor binding test ([3H] Prazosin Binding Test); conditions: 1 nM [3H] Prazosin, rat cortex, room temperature, 60 minutes
# In short: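 Rat (SD, 6-8 weeks) cerebral cortex membranes in 50 mM Tris-HCl pH 7.4 incubated with 1 nM [3H]prazosin for 60 min at room temperature; nonspecific binding defined with phentolamine. IC50 by probit method, converted to Ki using radioligand concentration and Scatchard-derived Kd.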
# [1] = read-out: Ki value, dopamine D2 receptor
# T1 sequence (P14842 whole entry): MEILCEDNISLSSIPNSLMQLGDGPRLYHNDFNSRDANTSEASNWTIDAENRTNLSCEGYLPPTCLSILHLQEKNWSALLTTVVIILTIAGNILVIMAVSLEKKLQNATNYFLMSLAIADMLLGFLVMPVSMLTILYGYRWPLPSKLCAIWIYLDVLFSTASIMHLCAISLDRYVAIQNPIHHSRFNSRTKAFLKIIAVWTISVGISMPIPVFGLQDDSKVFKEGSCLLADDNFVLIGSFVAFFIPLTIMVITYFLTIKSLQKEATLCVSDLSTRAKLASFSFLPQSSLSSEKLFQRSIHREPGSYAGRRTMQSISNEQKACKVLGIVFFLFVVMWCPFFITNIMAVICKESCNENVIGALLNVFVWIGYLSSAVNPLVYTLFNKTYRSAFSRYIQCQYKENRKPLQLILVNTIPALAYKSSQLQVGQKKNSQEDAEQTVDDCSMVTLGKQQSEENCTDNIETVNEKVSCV
# T2 sequence (P61169 whole entry): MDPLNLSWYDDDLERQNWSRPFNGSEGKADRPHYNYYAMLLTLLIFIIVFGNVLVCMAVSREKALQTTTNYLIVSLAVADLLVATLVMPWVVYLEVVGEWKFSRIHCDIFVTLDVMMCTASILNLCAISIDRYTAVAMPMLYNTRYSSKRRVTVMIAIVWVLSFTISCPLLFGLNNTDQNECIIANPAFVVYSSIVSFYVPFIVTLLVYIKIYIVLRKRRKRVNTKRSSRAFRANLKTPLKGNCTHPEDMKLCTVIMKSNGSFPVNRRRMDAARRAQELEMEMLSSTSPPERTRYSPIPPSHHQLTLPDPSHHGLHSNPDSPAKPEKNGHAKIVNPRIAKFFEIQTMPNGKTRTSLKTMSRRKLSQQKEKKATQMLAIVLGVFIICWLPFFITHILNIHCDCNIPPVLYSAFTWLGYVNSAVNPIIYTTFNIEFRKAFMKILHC
SMILES,Ki (serotonin S2 receptor),Ki (dopamine D2 receptor; [1]),Ki (adrenergic α1 receptor),"Ki (dopamine D2 receptor; Ki value, dopamine D2 receptor)"
"CCCS(=O)(=O)Nc1cc(N2CCN(C)CC2)cc(-c2ccccc2Cl)c1Cl [Example 35, 1-Methyl-4-[3-(2-chloropheyl)-4-chloro-5-propanesulfonylamino]phenylpiperazine]",3.37 nM,0.5 nM,17 nM,
"CCN1CCN(c2cc(-c3ccccc3)c(OC)c(C(F)(F)CC)c2)CC1 [Example 186, 1-Ethyl-4-[3-phenyl-4-methoxy-5-(1,1-difluoropropyl)]phenylpiperazine]",4.29 nM,2.96 nM,> 1000 nM,
CCC(F)c1cc(N2CCN(C)CC2)cc(-c2ccccc2CO)c1Cl (stereo not drawn) [Example 207],81.1 nM,240 nM,> 1000 nM,
"CCN1CCN(c2ccc(O)c(-c3ccccc3)c2)CC1 [Example 62, 1-Ethyl-4-(3-phenyl-4-hydroxy)phenylpiperazine]",> 1000 nM,> 1000 nM,> 1000 nM,
"CCN1CCN(c2cc(-c3ccccc3)c(OC)c(S(=O)(=O)N3CCCC3)c2)CC1 [Example 135, 1-Ethyl-4-[3-phenyl-4-methoxy-5-(1-pyrrolidinylsulfonyl)]phenylpiperazine]",16 nM,42.1 nM,> 1000 nM,
"CCN1CCN(c2cc(NS(=O)(=O)CC)c(Cl)c(-c3ccccc3C)c2)CC1 [Example 18, 1-Ethyl-4-[3-(2-tolyl)-4-chloro-5-ethanesulfonylamino]phenylpiperazine]",6.15 nM,0.75 nM,53.7 nM,
"CCC(O)c1cc(N2CCN(CC)CC2)cc(-c2ccccc2)c1Cl (stereo not drawn) [Example 138, 1Ethyl-4-[3-phenyl-4-chloro-5-(1-hydroxypropyl)]phenylpiperazine]",25 nM,2.89 nM,9.33 nM,
CCC(F)c1cc(N2CCN(CCCc3ccncc3)CC2)cc(-c2ccccc2C)c1Cl (stereo not drawn) [Example 150],97.1 nM,7.98 nM,> 1000 nM,
"CCN1CCN(c2cc(-c3ccccc3)c(O)c(-c3ccccc3)c2)CC1 [Example 58, 1-Ethyl-4-(3,5-diphenyl-4-hydroxy)phenylpiperazine]",> 1000 nM,> 1000 nM,290 nM,
"CC[C@@H](F)c1cc(N2CCN(CCO)CC2)cc(-c2ccc(F)cc2C)c1Cl [Example 223, 1-(2-Hydroxyethyl)-4-{3-[2-(4-fluorotolyl)]-4-chloro-5-[1-(R)-fluoropropyl]}phenylpiperazine]",1860 nM,6.61 nM,1510 nM,
"CCN1CCN(c2cc(C(=O)Cc3ccncc3)c(OC)c(-c3ccccc3)c2)CC1 [Example 103, 1-Ethyl-4-[3-phenyl-4-methoxy-5-(4-pyridyl)acetyl]phenylpiperazine]",6.65 nM,101 nM,> 1000 nM,
"CCCCC(F)c1cc(N2CCN(CC)CC2)cc(-c2ccccc2)c1OC (stereo not drawn) [Example 48, 1-Ethyl-4-[3-phenyl-4-methoxy-5-(1-fluoropentyl)]phenylpiperazine]",4.32 nM,25.8 nM,> 1000 nM,
"CCC(F)c1cc(N2CCN(CC)CC2)cc(-c2ccccc2Cl)c1Cl (stereo not drawn) [Example 24, 1-Ethyl-4-[3-(2-chlorophonyl)-4-chloro-5-(1-fluoropropyl)]phenylpiperazine]",40.9 nM,3.6 nM,537 nM,
"CN1CCN(c2cc(NS(C)(=O)=O)c(Cl)c(-c3ccccc3Cl)c2)CC1 [Example 188, 1-Methyl-4-[3-(2-chlorophenyl)-4-chloro-5-methanesulfonylamino]phenylpiperazine]",47.8 nM,1.33 nM,19 nM,
"CCC(F)c1cc(N2CCN(CC)CC2)cc(-c2ccccc2C)c1Cl (stereo not drawn) [Example 131, 1-Ethyl-4-[3-(2-tolyl)-4-chloro-5-(1-fluoropropyl)]phenylpiperazine]",20.8 nM,3.3 nM,> 1000 nM,
"CCN1CCN(c2cc(-c3ccccc3)c(OC)c(C(F)Cc3ccncc3)c2)CC1 (stereo not drawn) [Example 121, 1-Ethyl-4-{3-phenyl-4-methoxy-5-[1-fluoro-2-(4-pyridyl)ethyl]}phenylpiperazine]",168 nM,11 nM,308 nM,
"CCN1CCN(c2cc(-c3ccccc3)c(OC)c([S+]([O-])CC)c2)CC1 (stereo not drawn) [Example 105, 1-Ethyl-4-(3-phenyl-4-methoxy-5-ethanesulfinyl)phenylpiperazine]",5.21 nM,30.2 nM,620 nM,
"CCCc1cc(N2CCN(CC)CC2)cc(-c2ccc(OC)cc2)c1OC [Example 73, 1-Ethyl-4-[3-(4-methoxphenyl)-4-methoxy-5-propyl]phenylpiperazine]",635 nM,577 nM,332 nM,

SMILES,Ki (serotonin S2 receptor),Ki (dopamine D2 receptor; [1]),Ki (adrenergic α1 receptor),"Ki (dopamine D2 receptor; Ki value, dopamine D2 receptor)"
"CCN1CCN(c2cc(COCc3ccccc3)c(Cl)c(-c3ccccc3C)c2)CC1 [Example 167, 1-Ethyl-4-[3-(2-tolyl)-4-chloro-5-benzyloxymethyl]phenylpiperazine]",23.8 nM,45.4 nM,> 1000 nM,
"CCN1CCN(c2cc(-c3ccccc3C)c(Cl)c(S(=O)(=O)Nc3ccccc3)c2)CC1 [Example 166, 1-Ethyl-4-[3-(2-tolyl)-4-chloro-5-phenylaminosulfony]phenylpiperazine]",5.42 nM,1.42 nM,> 1000 nM,
CCS(=O)(=O)c1cc(N2CCN(CCO)CC2)cc(-c2ccc(F)cc2)c1OC [Example 195],5.75 nM,70.6 nM,> 1000 nM,
"CCN1CCN(c2cc(-c3ccccc3)c(OC)c(S(N)(=O)=O)c2)CC1 [Example 124, 1-Ethyl-4-(3-phenyl-4-methoxy-5-aminosulfonyl)phenylpiperazine]",> 1000 nM,99.2 nM,> 1000 nM,
"CCNS(=O)(=O)c1cc(N2CCN(CC)CC2)cc(-c2ccccc2)c1OC [Example 123, 1-Ethyl-4-(3-phenyl-4-methoxy-5-ethylaminofonyl)phenylpiperazine]",17.9 nM,27 nM,> 1000 nM,
"CCN1CCN(c2cc(-c3ccccc3)c(OC)c(C(O)Cc3ccccc3)c2)CC1 (stereo not drawn) [Example 94, 1-Etyl-4-[3-phenyl-4-methoxy-5-(1-hydroxyphenethyl)]phenylpiperazine]",109 nM,13.8 nM,600 nM,
"CCCc1cc(N2CCN(CC)CC2)cc(-c2ccccc2C)c1OC [Example 116, 1-Ethyl-4-[3-(2-tolyl)-4-methoxy-5-propyl]phenylpiperazine]",39.5 nM,9.65 nM,> 1000 nM,
"CCN1CCN(c2cc(C(=O)Cc3ccccc3)c(OC)c(-c3ccccc3)c2)CC1 [Example 92, 1-Ethyl-4-(3-phenyl-4-methoxy-5-phenylacetyl)phenylpiperazine]",1.14 nM,2.71 nM,942 nM,
"CCN1CCN(c2cc(-c3ccccc3)c(OC)c(-c3ccccc3)c2)CC1 [Example 56, 1-Ethyl-4-(3,5-diphenyl-4-methoxy)phenylpiperazine]",212 nM,111 nM,503 nM,
"CCCS(=O)(=O)Nc1cc(N2CCN(C)CC2)cc(-c2ccccc2C)c1Cl [Example 29, 1-Methyl-4-[3-(2-tolyl)-4-chloro-5-propanesulfonylamino]phenylpiperazine]",4.86 nM,1.19 nM,50.1 nM,
"CCC(F)c1cc(-c2ccccc2)cc(N2CCN(CC)CC2)c1 (stereo not drawn) [Example 129, 1-Ethyl-4-[3-phenyl-5-(1-fluoropropyl)]phenylpiperazine]",34.9 nM,,39.8 nM,1.86 nM
"CCCC(F)c1cc(N2CCN(CC)CC2)cc(-c2ccccc2)c1OC (stereo not drawn) [Example 47, 1-Ethyl-4-[3-phenyl-4-methoxy-5-(1-fluorobutyl)]phenylpiperazine]",5.72 nM,12.9 nM,> 1000 nM,
"CCC(F)c1cc(N2CCN(CC)CC2)cc(-c2ccccc2OC)c1Cl (stereo not drawn) [Example 143, 1-Ethyl-4-[3-(2-methoxyphenyl)-4-chloro-5-(1-fluoropropyl)]phenylpiperazine]",156 nM,16.9 nM,> 1000 nM,
"CCC(F)c1cc(N2CCN(C)CC2)cc(-c2ccccc2C)c1Cl (stereo not drawn) [Example 25, 1-Methyl-4-[3-(2-tolyl)-4-chloro-5-(1-fluoropropyl)]phenylpiperazine]",8.27 nM,2.4 nM,> 1000 nM,
"CCN1CCN(c2cc(-c3ccccc3)c(OC)c(C(C)(C)F)c2)CC1 [Example 86, 1-Ethyl-4-[3-phenyl-4-methoxy-5-(1-fluoroisopropyl)]phenylpiperazine]",29.4 nM,10.5 nM,> 1000 nM,
"CCC(CC)c1cc(N2CCN(CC)CC2)cc(-c2ccccc2C)c1Cl [Example 157, 1-Ethyl-4-[3-(2-tolyl)-4-chloro-5-(1-ethylpropyl)]phenylpiperazine]",74.4 nM,7.26 nM,> 1000 nM,
"CCCS(=O)(=O)Nc1cc(N2CCN(CC)CC2)cc(-c2ccccc2Cl)c1Cl [Example 32, 1-Ethyl-4-[3-(2-chlorophenyl)-4-chloro-5-propanesulfonylamino]phenylpiperazine]",3.36 nM,0.38 nM,19.5 nM,
